Results on ten substances are retold here after publication PMC12292835, “Amylin Receptor 1 Mutagenesis Revealed a Potential Role of Calcitonin Serine 29 in Receptor Interaction” (Biomedicines, 2025).

Where no end group is shown, it is not given here.

For series [1], the system named is amylin receptors. As to conditions: mutated human amylin, cell-based system; cited from earlier work. An excerpt: Receptor–ligand interaction studies with alanine-scanning mutagenesis have been reported for amylin receptors. Lee et al. first introduced alanine-scanning mutagenesis to calcitonin and AC413 peptides and examined the role of each amino acid in the interaction with amylin receptor 1 ECD [20]. They reported critical amino acids of peptide ligands for amylin receptor 1 ECD binding. Their results were supported by the following structural studies with the calcitonin receptor ECD and salmon calcitonin fragments. Recently, Lee S introduced alanine-scanning mutagenesis to a rat amylin ...

Series [2] deals with T1, amylin receptor 1 ECD with the E123D mutation (Homo sapiens, UniProt O60894+P30988, E123D).
T1 construct: pHLsec/hRAMP1.24–111-(GSA)3-hCTR.34–141.E123D-H6 (D-pJJ001); H6 (hexahistidine) (C); made in house; host or cells: HEK293 (transient transfection, secreted, N-glycosylated)
T1 sequence (O60894 24-111): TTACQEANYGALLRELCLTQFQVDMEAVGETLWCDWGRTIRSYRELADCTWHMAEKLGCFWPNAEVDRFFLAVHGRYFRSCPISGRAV
T1 sequence (P30988 34-141 E123D): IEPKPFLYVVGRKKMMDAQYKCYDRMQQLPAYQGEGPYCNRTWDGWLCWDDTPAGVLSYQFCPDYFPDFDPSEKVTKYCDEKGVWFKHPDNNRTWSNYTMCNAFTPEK
Briefly: Competition binding assay with non-labeled sCT(22–32), E123D. As to conditions: competition with 10 nM FITC-sCT(22–32), receptor ECD E123D 53 nM, 1 hour, anisotropy. As for the experimental part: (§1) The overall procedure of the FP binding assay with a saturation binding format was previously described. A total of 10 nM FITC-labeled sCT(22–32) and 10 nM FITC-labeled AC413(6–25) with Y25P mutation were used for the receptor–ligand binding assay. For the saturation binding format, the non-linear regression curves were generated by using user-defined equations that were previously described for affinity calculation. FITC-labeled peptide probes were incubated for 1 h at room temperature with the purified receptor protein prior to fluorescence signal measurement. A BioTek Synergy H1 microplate reader (Agilent, Santa Clara, CA, USA) was used to evaluate fluorescence polarization/anisotropy. […] When total fluorescence intensity of the FITC-labeled probes was altered with receptor binding by more than 10% from the starting fluorescence value, the anisotropy was adjusted to reflect the fluorescence change as previously described. […] PRISM 5.0 was fully functional, with the user-defined equations used predicting KD values from fluorescence polarization/anisotropy. […]
(§2) The mixture of the competitive peptide with varying concentrations, 10 nM FITC -sCT(22 –32), and the receptor ECD protein with the concentration described earlier was incubated for 1 hour. The anisotropy signal was measured by using a BioTek Synergy H1 microplate reader (Agilent, Santa Clara, CA, USA). […]

Series [3] concerns the target T2, amylin receptor 1 ECD with the E123A mutation (Homo sapiens, UniProt O60894+P30988, E123A).
T2 construct: pHLsec/hRAMP1.24–111-(GSA)3-hCTR.34–141.E123A-H6 (D-pJJ004); H6 (hexahistidine) (C); made in house; host or cells: HEK293 (transient transfection, secreted, N-glycosylated)
Briefly: Competition binding assay with non-labeled sCT(22–32), E123A. As to conditions: competition with 10 nM FITC-sCT(22–32), receptor ECD E123A 365 nM, 1 hour, anisotropy. How it is done:
as §1, §2

Series [4] has as its target T3, wild-type amylin receptor 1 ECD (Homo sapiens, UniProt O60894+P30988).
T3 construct: pHLsec/hRAMP1.24–111-(GSA)3-hCTR.34–141-H6 (H-pSL005); H6 (hexahistidine) (C); made in house; host or cells: HEK293 (transient transfection, secreted, N-glycosylated)
Briefly: Competition binding assay with non-labeled sCT(22–32), WT. As to conditions: competition with 10 nM FITC-sCT(22–32), receptor ECD 81 nM, 1 hour, anisotropy. As for the experimental part:
as §1, §2

In series [5] the test system is calcitonin receptor N135A, cAMP production. Particulars: cited from earlier work. As for the experimental part:
(§3) Several receptor–ligand interaction studies introducing mutagenesis to calcitonin and amylin receptors are also available. Among these previous reports, an extensive receptor–ligand interaction study was reported where alanine-scanning mutagenesis was applied to the upper segment of transmembrane helix 1 (TM1) of the calcitonin receptor and its extension into the receptor ECD [31]. Although the study focused on TM1, some residues of calcitonin receptor ECD were mutated and were tested for peptide ligand interaction. When the N135 residue was mutated to alanine, the ...

Series [6] relates to calcitonin receptor N135A, phosphorylation of extracellular signal-regulated kinase (ERK). As to conditions: cited from earlier work. How it is done: as §3
For series [7] the following is noted: cited from earlier work. An excerpt:
(§4) Due to the inherent nature of the calcitonin receptor as the main component of the functional amylin receptor, a calcitonin peptide is used as an agonist for amylin receptors. […] Accordingly, salmon calcitonin is well-characterized as a dual agonist for calcitonin and amylin receptors and is commonly used for research targeting amylin receptors.

Series [8] deals with pancreatic β-cells. As to conditions: in words; cited from earlier work.
From the text: as §4

Series [9] relates to calcitonin receptor N135A. Particulars: cited from earlier work. As for the experimental part: as §3
Series [10] deals with calcitonin receptor and amylin receptor 1 with N124A. As to conditions: cAMP production, in words; cited from earlier work. An excerpt:
The N124 residue of the calcitonin receptor appeared dispensable for amylin receptor 1 activation mediated by calcitonin or amylin. The affinity decreases for receptor ECD by 8-fold and more may be insufficient to produce the potency decrease in the activation of the full-length calcitonin and amylin rec ...

Series [11] relates to calcitonin receptor D101A. Particulars: cAMP production, calcitonin receptor activation, cited from earlier work. As for the experimental part: (§5) Gingell et al. addressed the receptor interaction with human calcitonin and rat amylin by introducing mutations to the peptide-binding pocket of the calcitonin receptor and amylin receptor 1 ECDs. The peptide potency for calcitonin receptor and amylin receptor 1 activation was investigated by measuring cAMP production. Multiple residues located in the peptide-binding pocket were tested for peptide-mediated receptor activation. They reported the mutational effects of D101A and N124A that were used in the current study. Consistent with our binding results, the D101A mutation markedly decr ...
A general note: Changes in cAMP serve as a functional read-out for many G protein-coupled receptors.

The test system of series [12] is amylin receptor 1 with D101A. As to conditions: cAMP production, amylin receptor 1 activation; cited from earlier work. How it is done: as §5
In series [13] the test system is human calcitonin and amylin receptors. As to conditions: in words; cited from earlier work.
From the text: as §4

T2 sequence (O60894 24-111): as the sequence (O60894 24-111) above
T2 sequence (P30988 34-141 E123A): as the sequence (P30988 34-141 E123D) above, with D90A counted along it
T3 sequence (O60894 24-111): as the sequence (O60894 24-111) above
T3 sequence (P30988 34-141): as the sequence (P30988 34-141 E123D) above, with D90E counted along it

Regarding “A5S: human amylin with mutation A5S (KCNTSTCATQRLANFLVHSSNNFGAILSSTNVGSNTY; ends and bridges not checked; cysteine pairing not given here; UniProt P10997 34-70, looked up, variant A5S)”, in series [1], the “amylin receptor activation potency” value is given as “significantly increased the amylin receptor activation potency”.

“Q10A: human amylin with mutation Q10A (KCNTATCATARLANFLVHSSNNFGAILSSTNVGSNTY; ends and bridges not checked; cysteine pairing not given here; UniProt P10997 34-70, looked up, variant Q10A)”: the “amylin receptor activation potency” value in series [1] is reported as “significantly increased the amylin receptor activation potency”. Consider “V17A: human amylin with mutation V17A (KCNTATCATQRLANFLAHSSNNFGAILSSTNVGSNTY; ends and bridges not checked; cysteine pairing not given here; UniProt P10997 34-70, looked up, variant V17A)”, for which the “amylin receptor activation potency” value in [1] was “significantly increased the amylin receptor activation potency”.

One may read the Ki as the dissociation constant of the complex between target and ligand, obtained from inhibition or displacement. Consider “YPRTNTGSGTP-NH2 [non-labeled sCT(22–32)]”, for which the figures for the Ki in [2], in [3] and in series [4] were 1.23 µM, 2.51 µM and 0.891 µM, respectively. As to calcitonin, the “decrease of functional affinity (pKA)” value in [5] and in [6] was “less than 10 fold” throughout. Regarding “human amylin: peptide hormone secreted from pancreatic β-cells, 37 amino acids (KCNTATCATQRLANFLVHSSNNFGAILSSTNVGSNTY; not fully specified (C-terminus, bridges); cysteine pairing not given here; UniProt P10997 34-70, looked up)”, the aggregation result in series [7] (human amylin) is on record as “reported to form aggregates”. In addition, the “effect of aggregates on pancreatic β-cells” value in series [8] is listed as “harm pancreatic β-cells”. On to human calcitonin: peptide hormone, for which the “effect of N135A on binding” value in series [9] is listed as “abolished the binding”. Moreover, the “effect of N124A on potency” value in [10] is listed as “did not significantly change the potency”. For the same substance, the decrease of potency in [11] (D101A) is recorded as 17 fold.

On to “porcine calcitonin: peptide hormone (CSNLSTCVLSAYWRNLNNFHRFSGMGFGPETP; ends and bridges not checked; cysteine pairing not given here; UniProt P01259 1-32, looked up)”, for which, in [9], the “effect of N135A on binding” value was “abolished the binding”. rat amylin: rodent (rat/mouse) amylin: the aggregation propensity entry in series [7] (rodent (rat/mouse) amylin versus human amylin) is “less propensity for forming aggregates than human amylin”. Moreover, the “effect of N124A on potency” value in series [10] is given as “did not significantly change the potency”. Besides, the “effect of D101A on potency” value in [11] (in words) is “not significantly altered”. For the same substance, the decrease of potency in series [12] is reported as 68 fold. Regarding salmon calcitonin, the “binding and receptor activation potency” value in series [13] was “strong receptor activation potency”.
